System: CaCo-2 cells
Assay: Effects of kinase inhibitors on N-(3-oxododecanoyl)-L-homoserine lactone-dependent apoptosis, viability by Trypan blue staining
Type: cell-based, human
Conditions: then 30 μM N-(3-oxododecanoyl)-L-homoserine lactone, 12 hours
Method: 2×10^5 CaCo-2 cells were inoculated per 3.5 cm dish, cultured for 12 hours in the presence of 10% serum, washed twice with PBS (-), and then synchronously cultured in a serum-free medium for 24 hours. Pretreatment with various inhibitors (50 μM PD98059 and 20 μM SB203580) or DMSO was carried out for 30 minutes. Then 30 μM N-(3-oxododecanoyl)-L-homoserine lactone or DMSO was added, the cells were cultured for 12 hours, and then viability was measured by Trypan blue staining.

SMILES: COc1cccc(-c2cc(=O)c3ccccc3o2)c1N [PD98059]
- effect of pretreatment on viability (50 μM pretreatment 30 minutes): no effect

SMILES: C[S+]([O-])c1ccc(-c2nc(-c3ccncc3)c(-c3ccc(F)cc3)[nH]2)cc1 (centres unmarked) [SB203580]
- viability at 20 µM (Homo sapiens, 20 μM pretreatment 30 minutes): 35%
